Legend:
HCT116 MTAP KO = assay: Cell proliferation inhibition (CellTiter Glo), HCT116 MTAP KO cells; format: cell-based; details: Homo sapiens, HCT-116, 144 h, cultured 6 days with compound
Protocol: (§1) Test Example 2: Test of cell proliferation inhibition activity of the compounds
(§2) HCT116-WT (ATCC, CCL-247) and HCT116 MTAP KO (Cobioer Nanjing, CBP75002) cells were seeded into white low-transparency 96-well sterile cell culture plates at a density of 250 cells per well, respectively. The culture medium was McCoy's 5A Medium + 10% FBS. The plates were incubated overnight at 37°C with 5% CO2. The cells were treated with compounds gradiently with an initial concentration of 10000 nM, 4-fold dilution, and 8 concentration points. The last two columns were control wells with only DMSO added. The treated cells were continued to be cultured for 6 days. On the seventh day, 50 µL of CellTiter Glo® reagent was added to each well. After reacting on a shaker at room temperature for 10 minutes, the chemiluminescence signal in the plate was detected using the chemiluminescence detection method on a BIOTEK H1 multi-mode plate reader. […] Table 2: IC50 values of compounds for HCT116 MTAP KO/WT cell growth inhibition

HCT116-WT = assay: Cell proliferation inhibition (CellTiter Glo), HCT116-WT cells; format: cell-based; details: 144 h, cultured 6 days with compound
Protocol: as §1, §2

PRMT5-MTA = PRMT5-MTA (Homo sapiens, UniProt O14744); assay: biochemical; details: IC50 (nM), PRMT5+MTA enzyme activity inhibition; PRMT5/MET50 protein 1 nM, 5'-deoxy-5'-adenosine 1 µM, SAM 2.5 µM, Histone H4 substrate 5 nM
Chain of PRMT5-MTA (O14744 whole entry): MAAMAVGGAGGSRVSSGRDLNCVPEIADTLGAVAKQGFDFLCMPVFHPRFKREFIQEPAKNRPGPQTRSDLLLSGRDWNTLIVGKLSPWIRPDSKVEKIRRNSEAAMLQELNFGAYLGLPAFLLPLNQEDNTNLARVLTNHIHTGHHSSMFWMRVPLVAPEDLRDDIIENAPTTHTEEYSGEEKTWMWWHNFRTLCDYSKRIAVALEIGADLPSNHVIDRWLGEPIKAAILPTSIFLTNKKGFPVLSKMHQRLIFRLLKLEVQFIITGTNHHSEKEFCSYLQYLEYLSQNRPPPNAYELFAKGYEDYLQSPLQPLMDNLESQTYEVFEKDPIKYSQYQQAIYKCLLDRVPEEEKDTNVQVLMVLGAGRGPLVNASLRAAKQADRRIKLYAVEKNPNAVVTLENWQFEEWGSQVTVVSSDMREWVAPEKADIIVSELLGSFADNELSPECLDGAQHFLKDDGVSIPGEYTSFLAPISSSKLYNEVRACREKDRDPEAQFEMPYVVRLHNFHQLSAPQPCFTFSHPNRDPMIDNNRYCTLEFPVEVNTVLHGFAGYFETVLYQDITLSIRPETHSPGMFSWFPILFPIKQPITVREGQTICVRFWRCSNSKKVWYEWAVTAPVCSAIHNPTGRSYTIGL
Chain of PRMT5-MTA (Q9BQA1 whole entry partner): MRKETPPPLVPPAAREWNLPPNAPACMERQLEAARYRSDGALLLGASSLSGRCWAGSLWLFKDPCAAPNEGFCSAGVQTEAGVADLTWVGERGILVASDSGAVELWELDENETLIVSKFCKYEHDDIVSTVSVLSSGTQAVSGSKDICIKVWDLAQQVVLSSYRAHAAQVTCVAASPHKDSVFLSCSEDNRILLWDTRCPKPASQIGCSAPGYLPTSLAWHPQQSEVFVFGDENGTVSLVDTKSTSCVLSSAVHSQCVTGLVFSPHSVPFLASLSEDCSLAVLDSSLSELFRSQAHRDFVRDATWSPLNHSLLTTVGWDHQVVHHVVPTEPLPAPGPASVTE
Protocol: The enzymatic inhibition activity of the compounds against PRMT5-MTA was detected using the AlphaScreen method. A 1× methyltransferase assay buffer IV (Signalchem) was prepared as a dilution solution for each component of the enzymatic reaction. […] The test compounds were added to all wells except the control wells in a 3-fold dilution series of 10 concentration points starting from 1000 nM using a Tecan D300e. After centrifugation at 1000 rpm for 1 minute in a centrifuge, the plate was incubated at 23°C for 15 minutes. Histone H4 substrate at a final concentration of 5 nM was added to the plate at 4 µL per well. After centrifugation at 1000 rpm for 1 minute in a centrifuge, the plate was reacted in an incubator at 23°C for 45 minutes. Anti-Histone H4 (symmetric dimethyl R3) antibody (Abcam) was pre-incubated with 50 µg/mL AlphaScreen Protein A Acceptor beads (PerkinElmer) at room temperature for 10 minutes, and then added to the plate in a volume of 10 µL per well, followed by reaction at room temperature for 1 hour. 10 µL of 50 µg/mL AlphaScreen Streptavidin Donor beads (PerkinElmer) were added to each well, and reacted at room temperature for 1 hour. The signal values in the plate were detected using the Alpha method on an Envision multi-mode plate reader. The IC50 values of the compounds for PRMT5/MET50 enzyme activity inhibition were calculated in Xlfit 5.0 software.

| Compound | IC50 (HCT116 MTAP KO) [nM] | IC50 (HCT116-WT) [nM] | IC50 (PRMT5-MTA) [nM] |
| --- | --- | --- | --- |
| CNC(N)=Nc1ccc(C(=O)N(Cc2ccncc2)[C@H](C)c2ccccc2F)cn1 [Compound 107] | 474 | 8230 | 4 |
| CNC(N)=Nc1ccc(C(=O)N(Cc2ccc(C(F)(F)F)cn2)[C@@H]2CCc3ccccc32)cn1 [Compound 83] | 195 | 1710 | 4 |
| CNC(N)=Nc1ccc(C(=O)N(Cc2cccnc2)[C@H](C)c2ccccc2F)cn1 [Compound 100] |  |  | 7.6 |
| CNC(N)=Nc1ccc(C(=O)N(Cc2ccc(C(F)(F)F)cn2)[C@H](C)c2cc(F)ccc2F)cn1 [Compound 85] | 11 | 290 | 4 |
| CNC(N)=Nc1ccc(C(=O)N(Cc2ccc(C(F)(F)F)cc2)[C@H](C)c2ccccc2F)cn1 [Compound 108] | 48 | 452 | 7.9 |
| CC(c1ncccn1)N(Cc1ccc(C(F)(F)F)cn1)C(=O)c1ccc(N=C(N)Nc2ccccc2)nc1 (stereo not shown) [Compound 9] |  |  | 7.9 |
| NC(=Nc1ccc(C(=O)N(Cc2ccc(C(F)(F)F)cn2)C2CCCc3cccnc32)cn1)NO (stereo not shown) [Compound 117] | 21 | 115 | 5.7 |
| CNC(N)=Nc1ccc(C(=O)N(Cc2ccc(C(F)(F)F)cn2)C(C)c2ccc(F)cc2)cn1 (stereo not shown) [Compound 37] | 454 | 2700 |  |
| CNC(N)=Nc1ccc(C(=O)N(C)C2COc3cc(-c4ccncc4)ccc32)cn1 (stereo not shown) [Compound 55, 6-((amino(methylamino)methylene)amino)-N-methyl-N-(6-(pyridin-4-yl)-2,3-dihydrobenzofuran-3-yl)nicotinamide] |  |  | 5 |
| CN/C(N)=N\c1ccc(C(=O)N(Cc2ccc(C(F)(F)F)cn2)[C@@H]2CCCc3ccccc32)cn1 [Compound 96, (R,Z)-6-((amino(methylamino)methylene)amino)-N-(1,2,3,4-tetrahydronaphthalen-1-yl) -N-((5-(trifluoromethyl)pyridin-2-yl)methyl)nicotinamide] | 22 | 366 | 3.5 |
| CNC(N)=Nc1ccc(C(=O)N(Cc2ccc(C(C)F)cn2)[C@H](C)c2ccccc2F)cn1 (stereo partly drawn) [Compound 74, 6-((Z)-(amino(methylamino)methylene)amino)-N-((5-(1-fluoroethyl)pyridin-2-yl)methy 1)-N-((R)-1-(2-fluorophenyl)ethyl)nicotinamide] | 41 | 744 | 8 |
| CNC(N)=Nc1ccc(C(=O)N(Cc2ccc(C(F)(F)F)cn2)n2ccc3ccccc32)cn1 [Compound 62] | 76 | 1790 | 4.1 |
| CNC(N)=Nc1ccc(C(=O)N(Cc2ccccc2)Cc2ccc(C(F)(F)F)cn2)cn1 [Compound 36] | 521 | 5360 | 3.6 |
| CN/C(N)=N\c1ccc(C(=O)N(Cc2ccc(C(F)(F)F)cn2)C2CCCc3nccnc32)cn1 (stereo not shown) [Compound 122, (Z)-6-((amino(methylamino)methylene)amino)-N-(5,6,7,8-tetrahydroquinoxalin-5-yl)-N -((5-(trifluoromethyl)pyridin-2-yl)methyl)nicotinamide] | 192 | 1930 |  |
| CN/C(N)=N\c1ccc(C(=O)N(Cc2ccc(C(F)(F)F)cn2)[C@H](C)c2ccc(F)cc2F)cn1 [Compound 82, (R,Z)-6-((amino(methylamino)methylene)amino)-N-(1-(2,4-difluorophenyl)ethyl)-N-((5-(trifluoromethyl)pyridin-2-yl)methyl)nicotinamide] | 18 | 226 | 4.2 |
| CN/C(N)=N\c1ccc(C(=O)N(Cc2ccc(OC(F)(F)F)cn2)[C@H](C)c2ccccc2F)cn1 [Compound 77, (R,Z)-6-((amino(methylamino)methylene)amino)-N-(1-(2-fluorophenyl)ethyl)-N-((5-(trifluoromethoxy)pyridin-2-yl)methyl)nicotinamide] | 28 | 330 | 4 |
| CNC(N)=Nc1ccc(C(=O)N(Cc2ccc(-c3ccc(C)nc3)cn2)[C@H](C)c2ccccc2F)cn1 [Compound 71] | 62 | 1090 | 7.7 |
| CNC(N)=Nc1ccc(C(=O)N(Cc2ccc(C(F)(F)F)cn2)C2CCCc3cccnc32)cn1 (stereo not shown) [Compound 59] | 18 | 413 |  |
| CNC(N)=Nc1ccc(C(=O)N(Cc2ccc(-c3cncs3)cn2)[C@H](C)c2ccccc2F)cn1 [Compound 72] | 54 | 696 |  |
| CNC(N)=Nc1ccc(C(=O)N(CC2CCCCO2)C(C)c2ccccc2F)cn1 (stereo not shown) [Compound 103] |  |  | 4.2 |
| CC(c1ncccn1)N(Cc1ccc(C(F)(F)F)cn1)C(=O)c1ccc(N=C(N)NCC(=O)O)nc1 (stereo not shown) [Compound 18] | 868 | 2030 |  |
| COC=C(N)Nc1ccc(C(=O)N(Cc2ccc(C(F)(F)F)cn2)C(C)c2ncccn2)cn1 (stereo not shown) [Compound 23] |  |  | 5.8 |
| COC(=O)CNC(N)=Nc1ccc(C(=O)N(Cc2ccc(C(F)(F)F)cn2)C(C)c2ncccn2)cn1 (stereo not shown) [Compound 8] |  |  | 5.5 |
| COCCNC(N)=Nc1ccc(C(=O)N(Cc2ccc(C(F)(F)F)cn2)C(C)c2ncccn2)cn1 (stereo not shown) [Compound 3] |  |  | 2.9 |
| CNC(=Nc1ccc(C(=O)N(Cc2ccc(C(F)(F)F)cn2)C(C)c2ncccn2)cn1)NC (stereo not shown) [Compound 21, 6-((bis(methyl-amino)methylene)amino)-N-(1-(pyrimidin-2-yl)ethyl)-N-((5-(trifluoromethyl)pyridin-2-yl)methyl)nicotinamide] |  |  | 4.7 |
| CNC(N)=Nc1ccc(C(=O)N(Cc2ccc(C(F)(F)F)cc2F)C(C)c2cccc3nccnc23)cn1 (stereo not shown) [compound 121] |  |  | 4.4 |
| CCC(c1ccccc1F)N(Cc1ccc(C(F)(F)F)cn1)C(=O)c1ccc(N=C(N)NC)nc1 (stereo not shown) [Compound 84] | 25 | 428 |  |
| CN/C(N)=N\c1ccc(C(=O)N(Cc2ccc(C(F)(F)F)cn2)C(C)c2ncccc2F)cn1 (single isomer, unassigned) [Compound 66] |  |  | 7.5 |
| CNC(N)=Nc1ccc(C(=O)N(Cc2ccc3sc(NC)nc3c2)[C@H](C)c2ccccc2F)cn1 [Compound 80] |  |  | 7.8 |

Continued by falling IC50 (PRMT5-MTA), values first:

| IC50 (HCT116 MTAP KO) [nM] | IC50 (HCT116-WT) [nM] | IC50 (PRMT5-MTA) [nM] | Compound |
| --- | --- | --- | --- |
| 616 | 3840 | 3.3 | CNC(N)=Nc1ccc(C(=O)N(Cc2ccc(C(F)(F)F)cn2)C(C)c2ccccc2Cl)cn1 (stereo not shown) [Compound 88] |
| 63 | 1960 | 3.2 | CNC(N)=Nc1ccc(C(=O)N(Cc2ccc(C(F)(F)F)cn2)N2CCc3ccccc32)cn1 [Compound 64] |
|  |  | 2.3 | CC(C)NC(N)=Nc1ccc(C(=O)N(Cc2ccc(C(F)(F)F)cn2)C(C)c2ncccn2)cn1 (stereo not shown) [Compound 15] |
|  |  | 2 | CNC(N)=Nc1ccc(C(=O)N(Cc2ccc(C(F)(F)F)cn2)C2CCC2)cn1 [Compound 35] |
|  |  | 2 | CNC(N)=Nc1ccc(C(=O)N(C)C2COc3cc(C(F)(F)F)ccc32)cn1 (stereo not shown) [Compound 54, 6-((amino(methylamino)methylene)amino)-N-methyl-N-(6-(trifluoromethyl)-2,3-dihydrobenzofuran-3-yl)nicotinamide] |
|  |  | 1.9 | CNC(N)=Nc1ccc(C(=O)N(Cc2ccc(C(F)(F)F)cn2)C(C)c2ccc(C)cc2)cn1 (stereo not shown) [Compound 40] |
|  |  | 1.8 | CNC(N)=Nc1ccc(C(=O)N2C[C@@H](C)CC[C@@H]2c2ccc(F)cc2)cn1 [Compound 57, 2-(5-((2R,5S)-2-(4-fluorophenyl)-5-methylpiperidine-1-carbonyl)pyridin-2-yl)-1-methyl guanidine] |
| 61 | 982 | 1.6 | CNC(N)=Nc1ccc(C(=O)N(Cc2ccc(C(F)(F)F)cn2)C(C)c2ccccc2F)cn1 (stereo not shown) [Compound 42] |
|  |  | 1.6 | CNC(N)=Nc1ccc(C(=O)N(Cc2ccc(C(F)(F)F)cn2)C(C)c2cccc3ccccc23)cn1 (stereo not shown) [Compound 43] |
|  |  | 1.6 | CNC(N)=Nc1ccc(C(=O)N(Cc2ccc(C(F)(F)F)cn2)C(C)c2ncccn2)cc1 (stereo not shown) [Compound 4] |
| 81 | 1520 | 1.5 | CNC(N)=Nc1ccc(C(=O)N(Cc2ccc(C(F)(F)F)cn2)C2CCOc3cccnc32)cn1 (stereo not shown) [Compound 90] |
| 114 | 1890 | 1.5 | CNC(N)=Nc1ccc(C(=O)N(Cc2ccc(C(F)(F)F)cn2)C(C)c2ccccc2)cn1 (stereo not shown) [Compound 32] |
|  |  | 1.3 | CC(c1ncccn1)N(Cc1ccc(C(F)(F)F)cn1)C(=O)c1ccc(N=C(N)NCCN(C)C)nc1 (stereo not shown) [Compound 10] |
|  |  | 1.2 | CNC(N)=Nc1ccc(C(=O)N(Cc2ccc(C(F)(F)F)cn2)C(C)c2ccncc2)cn1 (stereo not shown) [Compound 39] |
|  |  | 1 | CN/C(N)=N\c1ccc(C(=O)N(Cc2ccc(C(F)(F)F)cn2)C(C)c2cccc3nccnc23)cn1 (stereo not shown) [Compound 120, (Z)-6-((amino(methylamino)methylene)amino)-N-(1-(quinoxalin-5-yl)ethyl)-N-((5-(trifluoromethyl)pyridin-2-yl)methyl)nicotinamide] |
|  |  | 0.8 | CC(c1ncccn1)N(Cc1ccc(C(F)(F)F)cn1)C(=O)c1ccc(N=C(N)NCCO)nc1 (stereo not shown) [Compound 19] |
| 12 | 421 | 0.6 | CNC(N)=Nc1ccc(C(=O)N(Cc2ccc(C(F)(F)F)cn2)[C@H](C)c2ccccc2F)cn1 [Compound 89] |

Source: patent EP4763847A1 (Jiangsu Yahong Meditech Co., Ltd., priority 2023, dated 2025)
